Assay results: US10670605B2, “Cysteine reactive probes and uses thereof” (The Scripps Research Institute, priority 2015, dated 2020)
Blank lines part the entries; values can stand above or below the molecule they belong to.

Legend:
Test in all cases: Competitive isoTOP-ABPP in situ (fragment-treated cells)
Type in all cases: cell-based
[1] = biological target: cysteines in MDA-MB-231 and Ramos cells (Homo sapiens, UniProt O75362); settings: 200 μM, insitu
[2] = biological target: T1, cysteines in MDA-MB-231 and Ramos cells (Homo sapiens, UniProt Q9UPQ0); settings: 200 μM, insitu, 231
T1 sequence (Q9UPQ0 1-1083): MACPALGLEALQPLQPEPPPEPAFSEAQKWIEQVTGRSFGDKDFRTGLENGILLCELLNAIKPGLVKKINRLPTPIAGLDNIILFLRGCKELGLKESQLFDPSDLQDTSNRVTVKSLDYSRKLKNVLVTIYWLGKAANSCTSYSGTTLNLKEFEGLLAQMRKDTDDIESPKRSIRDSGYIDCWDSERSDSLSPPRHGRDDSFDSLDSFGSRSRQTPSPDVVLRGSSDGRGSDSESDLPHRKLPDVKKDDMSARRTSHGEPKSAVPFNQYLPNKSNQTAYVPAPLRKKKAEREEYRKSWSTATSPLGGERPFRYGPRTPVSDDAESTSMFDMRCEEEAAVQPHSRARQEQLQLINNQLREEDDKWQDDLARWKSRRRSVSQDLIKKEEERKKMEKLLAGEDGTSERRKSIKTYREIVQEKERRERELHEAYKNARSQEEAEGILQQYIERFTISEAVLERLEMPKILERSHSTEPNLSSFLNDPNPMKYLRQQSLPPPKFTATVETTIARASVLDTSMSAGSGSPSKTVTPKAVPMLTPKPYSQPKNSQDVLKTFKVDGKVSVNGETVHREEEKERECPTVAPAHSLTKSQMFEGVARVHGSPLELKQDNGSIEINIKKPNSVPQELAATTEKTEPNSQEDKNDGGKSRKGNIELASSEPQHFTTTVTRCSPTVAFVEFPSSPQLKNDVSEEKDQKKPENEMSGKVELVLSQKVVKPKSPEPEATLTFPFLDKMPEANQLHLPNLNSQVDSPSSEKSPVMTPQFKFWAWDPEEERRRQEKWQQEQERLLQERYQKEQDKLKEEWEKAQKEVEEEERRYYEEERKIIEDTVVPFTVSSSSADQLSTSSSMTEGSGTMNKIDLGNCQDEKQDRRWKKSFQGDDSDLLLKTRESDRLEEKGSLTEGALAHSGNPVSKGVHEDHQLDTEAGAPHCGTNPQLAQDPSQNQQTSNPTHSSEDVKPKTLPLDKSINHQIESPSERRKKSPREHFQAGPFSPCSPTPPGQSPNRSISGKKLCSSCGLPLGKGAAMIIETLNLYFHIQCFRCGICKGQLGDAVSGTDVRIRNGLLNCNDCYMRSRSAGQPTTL

[3] = biological target: T2, cysteines in MDA-MB-231 and Ramos cells (Homo sapiens, UniProt P51649)
T2 sequence (P51649 48-535): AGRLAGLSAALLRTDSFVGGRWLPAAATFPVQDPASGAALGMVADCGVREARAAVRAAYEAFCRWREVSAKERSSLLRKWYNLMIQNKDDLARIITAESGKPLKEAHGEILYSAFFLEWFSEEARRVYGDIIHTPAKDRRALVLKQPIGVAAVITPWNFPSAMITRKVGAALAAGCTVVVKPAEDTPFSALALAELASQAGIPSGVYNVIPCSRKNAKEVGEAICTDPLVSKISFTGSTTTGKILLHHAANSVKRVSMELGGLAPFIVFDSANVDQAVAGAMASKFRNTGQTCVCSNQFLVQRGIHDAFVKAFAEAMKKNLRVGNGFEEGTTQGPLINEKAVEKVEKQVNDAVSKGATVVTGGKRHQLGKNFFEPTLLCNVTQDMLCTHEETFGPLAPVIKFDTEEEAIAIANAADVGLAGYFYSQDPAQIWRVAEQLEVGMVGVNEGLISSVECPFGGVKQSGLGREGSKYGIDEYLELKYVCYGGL

[4] = biological target: T3, cysteines in MDA-MB-231 and Ramos cells (Homo sapiens, UniProt Q8WV74)
T3 sequence (Q8WV74 1-236): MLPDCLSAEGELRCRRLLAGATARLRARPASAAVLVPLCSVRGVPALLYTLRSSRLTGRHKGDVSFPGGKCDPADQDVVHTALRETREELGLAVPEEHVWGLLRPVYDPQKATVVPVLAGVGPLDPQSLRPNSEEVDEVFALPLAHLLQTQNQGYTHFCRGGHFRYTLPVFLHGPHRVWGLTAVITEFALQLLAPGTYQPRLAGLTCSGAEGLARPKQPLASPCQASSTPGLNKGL

[5] = biological target: T4, cysteines in MDA-MB-231 and Ramos cells (Homo sapiens, UniProt P19447); settings: 200 μM, insitu, 231
T4 sequence (P19447 1-782): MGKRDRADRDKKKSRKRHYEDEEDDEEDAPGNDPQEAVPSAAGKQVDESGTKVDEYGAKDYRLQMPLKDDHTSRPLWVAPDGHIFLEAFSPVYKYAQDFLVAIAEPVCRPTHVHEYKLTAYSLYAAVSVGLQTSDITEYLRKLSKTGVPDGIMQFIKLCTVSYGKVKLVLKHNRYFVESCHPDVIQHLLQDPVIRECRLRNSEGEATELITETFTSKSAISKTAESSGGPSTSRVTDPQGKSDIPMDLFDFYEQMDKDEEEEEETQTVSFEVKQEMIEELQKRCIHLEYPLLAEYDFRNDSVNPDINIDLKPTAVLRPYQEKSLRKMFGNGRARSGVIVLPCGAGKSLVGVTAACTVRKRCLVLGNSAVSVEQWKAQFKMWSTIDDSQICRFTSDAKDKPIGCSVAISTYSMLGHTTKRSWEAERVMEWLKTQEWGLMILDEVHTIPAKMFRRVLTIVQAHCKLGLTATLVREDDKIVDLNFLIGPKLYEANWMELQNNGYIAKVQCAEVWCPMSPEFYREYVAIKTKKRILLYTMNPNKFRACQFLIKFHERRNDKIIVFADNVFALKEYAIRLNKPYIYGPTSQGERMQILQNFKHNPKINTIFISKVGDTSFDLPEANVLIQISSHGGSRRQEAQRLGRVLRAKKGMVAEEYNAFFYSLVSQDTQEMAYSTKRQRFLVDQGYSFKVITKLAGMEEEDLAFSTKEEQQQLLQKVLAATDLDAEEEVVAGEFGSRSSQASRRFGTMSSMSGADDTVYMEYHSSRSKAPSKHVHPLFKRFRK

[6] = biological target: cysteines in MDA-MB-231 and Ramos cells (Homo sapiens, UniProt Q96FX7); settings: for isoTOP-ABPP ratio Q96FX7_C209 / isoTOP-ABPP ratio, cysteine Q96FX7_C209: 200 μM, insitu
[7] = biological target: cysteines in MDA-MB-231 and Ramos cells (Homo sapiens, UniProt P68366)
[8] = biological target: cysteines in MDA-MB-231 and Ramos cells (Homo sapiens, UniProt Q06203)
Sequence of cysteines in MDA-MB-231 and Ramos cells (Homo sapiens, UniProt Q06203) (Q06203 12-517): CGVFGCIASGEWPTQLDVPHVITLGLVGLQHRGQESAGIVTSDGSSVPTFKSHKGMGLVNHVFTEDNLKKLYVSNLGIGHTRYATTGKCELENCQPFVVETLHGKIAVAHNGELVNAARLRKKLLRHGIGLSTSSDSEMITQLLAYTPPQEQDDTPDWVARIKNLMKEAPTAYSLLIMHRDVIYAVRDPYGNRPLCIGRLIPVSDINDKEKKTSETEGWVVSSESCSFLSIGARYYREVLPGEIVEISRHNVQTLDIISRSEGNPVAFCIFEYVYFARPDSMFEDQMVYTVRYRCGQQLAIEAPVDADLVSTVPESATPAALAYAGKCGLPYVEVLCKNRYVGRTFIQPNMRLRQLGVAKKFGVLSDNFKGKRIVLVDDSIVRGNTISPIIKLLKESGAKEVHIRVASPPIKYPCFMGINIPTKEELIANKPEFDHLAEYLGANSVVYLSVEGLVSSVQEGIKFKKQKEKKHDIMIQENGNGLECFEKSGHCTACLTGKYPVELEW

Sequence of cysteines in MDA-MB-231 and Ramos cells (Homo sapiens, UniProt Q96FX7) (Q96FX7 whole entry): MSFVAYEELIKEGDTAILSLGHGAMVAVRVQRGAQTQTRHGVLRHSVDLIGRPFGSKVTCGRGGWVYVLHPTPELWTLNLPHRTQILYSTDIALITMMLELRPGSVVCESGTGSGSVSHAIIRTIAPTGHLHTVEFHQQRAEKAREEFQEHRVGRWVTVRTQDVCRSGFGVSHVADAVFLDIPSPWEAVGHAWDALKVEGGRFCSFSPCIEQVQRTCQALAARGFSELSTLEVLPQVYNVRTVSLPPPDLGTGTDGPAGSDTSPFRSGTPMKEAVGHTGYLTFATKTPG
Sequence of cysteines in MDA-MB-231 and Ramos cells (Homo sapiens, UniProt P68366) (P68366 whole entry): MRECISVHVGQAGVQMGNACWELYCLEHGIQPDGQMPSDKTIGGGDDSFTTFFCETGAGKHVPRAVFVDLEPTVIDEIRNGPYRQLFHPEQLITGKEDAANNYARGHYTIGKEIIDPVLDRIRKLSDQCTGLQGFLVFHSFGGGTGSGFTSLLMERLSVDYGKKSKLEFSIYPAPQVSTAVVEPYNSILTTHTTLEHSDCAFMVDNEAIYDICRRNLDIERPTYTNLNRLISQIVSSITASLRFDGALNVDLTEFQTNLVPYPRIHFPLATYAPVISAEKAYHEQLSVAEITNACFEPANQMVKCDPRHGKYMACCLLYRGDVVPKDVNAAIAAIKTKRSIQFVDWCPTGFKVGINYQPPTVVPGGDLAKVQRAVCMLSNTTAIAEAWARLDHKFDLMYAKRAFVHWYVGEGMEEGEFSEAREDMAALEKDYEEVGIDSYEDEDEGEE
Sequence of cysteines in MDA-MB-231 and Ramos cells (Homo sapiens, UniProt O75362) (O75362 whole entry): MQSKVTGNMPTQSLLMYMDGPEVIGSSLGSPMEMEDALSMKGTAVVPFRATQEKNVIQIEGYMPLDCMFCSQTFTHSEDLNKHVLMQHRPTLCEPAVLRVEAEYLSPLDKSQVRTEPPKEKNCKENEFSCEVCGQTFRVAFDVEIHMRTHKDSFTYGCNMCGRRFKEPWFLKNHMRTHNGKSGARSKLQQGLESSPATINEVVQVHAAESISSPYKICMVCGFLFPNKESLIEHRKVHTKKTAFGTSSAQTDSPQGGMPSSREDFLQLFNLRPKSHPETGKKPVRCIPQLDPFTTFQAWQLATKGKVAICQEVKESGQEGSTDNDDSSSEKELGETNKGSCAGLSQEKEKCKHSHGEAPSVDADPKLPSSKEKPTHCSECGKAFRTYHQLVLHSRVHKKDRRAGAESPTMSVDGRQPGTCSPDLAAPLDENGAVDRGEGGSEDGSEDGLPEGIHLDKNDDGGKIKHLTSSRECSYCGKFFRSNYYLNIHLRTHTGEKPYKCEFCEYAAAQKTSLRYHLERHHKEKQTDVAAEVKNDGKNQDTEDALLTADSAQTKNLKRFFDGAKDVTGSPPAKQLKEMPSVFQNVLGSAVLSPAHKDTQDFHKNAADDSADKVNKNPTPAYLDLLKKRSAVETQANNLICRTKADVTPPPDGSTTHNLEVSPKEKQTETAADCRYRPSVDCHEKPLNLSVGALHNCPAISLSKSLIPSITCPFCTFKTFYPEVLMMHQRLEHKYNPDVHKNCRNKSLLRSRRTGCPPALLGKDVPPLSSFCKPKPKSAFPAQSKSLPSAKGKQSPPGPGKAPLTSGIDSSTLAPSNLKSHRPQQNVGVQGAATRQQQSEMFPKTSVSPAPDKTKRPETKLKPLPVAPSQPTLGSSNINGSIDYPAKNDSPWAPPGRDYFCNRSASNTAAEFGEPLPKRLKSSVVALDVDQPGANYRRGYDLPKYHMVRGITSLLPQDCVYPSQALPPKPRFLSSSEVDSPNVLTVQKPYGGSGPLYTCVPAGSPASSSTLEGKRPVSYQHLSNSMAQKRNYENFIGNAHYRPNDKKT

- isoTOP-ABPP ratio O75362_C286 [1]; 231: 0.9
Compound: COc1ccccc1OCCNC(=O)CCl [compound 28]

- isoTOP-ABPP ratio Q9UPQ0_C140 [2]: 20.0
- isoTOP-ABPP ratio O75362_C286 [1]; 231: 20.0
- isoTOP-ABPP ratio P51649_C340 ([3]; 200 μM, insitu, 231): 2.4
- isoTOP-ABPP ratio Q8WV74_C207 ([4]; 200 μM, insitu, 231): 20.0
- isoTOP-ABPP ratio P19447_C342 [5]: 5.9
- isoTOP-ABPP ratio Q96FX7_C209 [6]; 231: 20.0
Compound: CC1CCc2ccccc2N1C(=O)CCl (centres unmarked) [compound 45]

- isoTOP-ABPP ratio Q9UPQ0_C140 [2]: 2.5
- isoTOP-ABPP ratio P68366_C54 ([7]; 200 μM, insitu, 231): 2.0
- isoTOP-ABPP ratio Q06203_C100 ([8]; 200 μM, insitu, 231): 1.2
- isoTOP-ABPP ratio P19447_C342 [5]: 1.0
- isoTOP-ABPP ratio Q96FX7_C209 [6]; 231: 1.0
Compound: C=CC(=O)Nc1cc(F)c(N2CCN(C(=O)OC(C)(C)C)CC2)c(F)c1 [compound 38]

- isoTOP-ABPP reactivity Q9UPQ0_C140 LIMCH1 [2]: 20.0
- isoTOP-ABPP reactivity P68366_C54 TUBA4A ([7]; 200 μM, insitu, 231): 0.9
- isoTOP-ABPP reactivity P51649_C340 ALDH5A1 ([3]; 200 μM, insitu, 231): 2.7
- isoTOP-ABPP reactivity Q8WV74_C207 NUDT8 ([4]; 200 μM, insitu, 231): 20.0
- isoTOP-ABPP reactivity P19447_C342 ERCC3 [5]: 12.4
Compound: COc1cc2c(cc1OC)CN(C(=O)CCl)CC2 [compound 8]

- isoTOP-ABPP ratio P68366_C54 ([7]; 200 μM, insitu, ramos): 1.1
- isoTOP-ABPP ratio P51649_C340 ([3]; 200 μM, insitu, ramos): 1.0
- isoTOP-ABPP ratio Q06203_C100 ([8]; 200 μM, insitu, 231): 0.6
- isoTOP-ABPP ratio Q06203_C100 ([8]; 200 μM, insitu, ramos): 1.2
Compound: C=CC(=O)N(Cc1cccnc1)c1cc(C(F)(F)F)cc(C(F)(F)F)c1 [compound 31]

- isoTOP-ABPP ratio Q9UPQ0_C140 [2]: 1.1
- isoTOP-ABPP ratio O75362_C286 [1]; 231: 1.1
- isoTOP-ABPP ratio O75362_C286 ([1]; ramos): 20.0
- isoTOP-ABPP ratio P68366_C54 ([7]; 200 μM, insitu, ramos): 1.3
- isoTOP-ABPP ratio P51649_C340 ([3]; 200 μM, insitu, 231): 1.1
- isoTOP-ABPP ratio P51649_C340 ([3]; 200 μM, insitu, ramos): 1.3
- isoTOP-ABPP ratio, cysteine Q06203_C100 ([8]; 200 μM, insitu, ramos): 2.0
- isoTOP-ABPP ratio, cysteine Q8WV74_C207 ([4]; 200 μM, insitu, 231): 13.1
- isoTOP-ABPP ratio P19447_C342 [5]: 1.1
- isoTOP-ABPP ratio, cysteine Q96FX7_C209 [6]; 231: 2.1
- isoTOP-ABPP ratio, cysteine Q96FX7_C209 ([6]; ramos): 6.8
Compound: O=C(CCl)NCCc1c[nH]c2ccccc12 [compound 13]

- isoTOP-ABPP reactivity P68366_C54 TUBA4A ([7]; 100 μM in situ 231): 0.8
- isoTOP-ABPP reactivity P51649_C340 ALDH5A1 ([3]; 100 μM in situ 231): 1.0
- isoTOP-ABPP reactivity Q06203_C100 PPAT ([8]; 100 μM in situ 231): 1.7
- isoTOP-ABPP reactivity Q8WV74_C207 NUDT8 ([4]; 100 μM in situ 231): 20.0
- isoTOP-ABPP reactivity Q96FX7_C209 TRMT61A ([6]; 100 μM in situ 231): 2.4
Compound: COc1ccc(C2CC(c3cccs3)=NN2C(=O)CCl)cc1 (centres unmarked) [compound 4]

- isoTOP-ABPP ratio O75362_C286 ([1]; ramos): 1.0
- isoTOP-ABPP ratio P68366_C54 ([7]; 200 μM, insitu, ramos): 1.0
- isoTOP-ABPP ratio P51649_C340 ([3]; 200 μM, insitu, ramos): 1.0
- isoTOP-ABPP ratio Q06203_C100 ([8]; 200 μM, insitu, ramos): 1.6
Compound: O=C(CCl)N1CCN(CC(=O)N2CCOCC2)CC1 [compound 29]
